Assays:
[1] = system: Patients suffering from colon cancer or breast cancer; test: Example 3: appearance of PPE under standard chemotherapy; format: in vivo, human
Procedure: (§1) Patients suffering from colon cancer or breast cancer were treated from January 2005 up to March 2007 with the following standard chemotherapy: • AIO protocol: high dose infusion 5FU24H+leucovorin • FOLFOX 4 protocol: day 1: oxaliplatin, 85 mg/m2, and leucovorin, 200 mg/m2, concurrently i.v., then 5-FU, 400 mg/m2 i.v. bolus followed by 600 mg/m2 continuous i.v.; day 2: leucovorin, 200 mg/m2 i.v., then 5-FU, 400 mg/m2 i.v. bolus, followed by 600 mg/m2 continuous i.v.; repeated every 2 weeks. • Oral capecitabine.
Palmar plantar erythrodysesthesia (PPE) appeared in 30% of the patients treated with 5-FU and in 66% of those treated with capecitabine.

[2] = system: Patients with colorectal carcinoma; test: Example 2: treatment of palmar plantar erythrodysesthesia with the allopurinol cream; format: in vivo, human
Procedure: Patients with colorectal carcinoma were administered chemotherapy (adjuvant or palliative) following the usual protocols. As soon as the first symptoms of palmar planar erythrodysesthesia appeared after starting chemotherapy, the patients were administered the cream prepared in example 1.
The characteristics of the patients treated with the cream and the chemotherapeutic regimen that they were administered were as follow:
Patients with advanced or metastatic colorectal cancer: 8
Patients with resected stage III colon cancer: 2
• 5FU+LV bolus (Mayo protocol): 1 patient • 5FU+LV infusional (AIO protocol): 7 patients • Capecitabine monotherapy: 2 patients
The cream was applied 5 times per day, to the palms and soles, as long as the chemotherapy was applied. The frequency was reduced in between cycles and increased shortly before and during chemotherapy administration.

[3] = system: Patients suffering from colon cancer or breast cancer; test: Example 3: response of PPE to allopurinol cream treatment; format: in vivo, human
Procedure: as §1
The cream comprising allopurinol as prepared in example 1 was topically applied by the patients 4-5 times a day to the hands and feet. In case of no response to this treatment and persistence of PPE symptoms, the dosage of chemotherapy was reduced and some cases interrupted.

[4] = cited from earlier work
[5] = target: T1, deoxythymidine phosphorylase (thymidine phosphorylase, TP) (Homo sapiens, UniProt P19971); details: Gallo et al. J Biological Chemistry 1968; cited from earlier work
T1 sequence (P19971 11-482): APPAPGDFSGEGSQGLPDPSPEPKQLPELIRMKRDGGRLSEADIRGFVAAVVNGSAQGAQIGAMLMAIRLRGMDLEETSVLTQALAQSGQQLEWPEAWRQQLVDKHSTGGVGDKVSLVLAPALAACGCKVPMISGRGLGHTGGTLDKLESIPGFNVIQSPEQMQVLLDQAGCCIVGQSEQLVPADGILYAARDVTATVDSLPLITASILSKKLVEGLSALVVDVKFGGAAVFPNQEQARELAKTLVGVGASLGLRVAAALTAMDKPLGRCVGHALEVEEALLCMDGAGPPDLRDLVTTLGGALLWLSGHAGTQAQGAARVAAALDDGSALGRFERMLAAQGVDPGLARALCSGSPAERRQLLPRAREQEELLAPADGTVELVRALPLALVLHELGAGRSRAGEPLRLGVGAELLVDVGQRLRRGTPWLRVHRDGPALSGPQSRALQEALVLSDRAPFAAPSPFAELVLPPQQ

uridine phosphorylase = uridine phosphorylase (Homo sapiens, UniProt Q16831); details: Gallo et al. J Biological Chemistry 1968; cited from earlier work
cancer patients = details: colon / colorectal cancer, versus fluorouracil+leucovorin; cited from earlier work
[6] = standard chemotherapy, before allopurinol treatment
[7] = 2 PPE patients on FOLFOX-4 chemotherapy
[8] = 3% cream 4-5 times a day to hands and feet
[9] = 5 PPE patients on AIO chemotherapy
[10] = 8 PPE patients on Capecitabine chemotherapy
[11] = all 15 PPE patients, 3% cream 4-5 times a day
[12] = all 15 PPE patients, 3% cream 4-5 times a day, listed as allopiirinol

Sequence of uridine phosphorylase (Q16831 whole entry): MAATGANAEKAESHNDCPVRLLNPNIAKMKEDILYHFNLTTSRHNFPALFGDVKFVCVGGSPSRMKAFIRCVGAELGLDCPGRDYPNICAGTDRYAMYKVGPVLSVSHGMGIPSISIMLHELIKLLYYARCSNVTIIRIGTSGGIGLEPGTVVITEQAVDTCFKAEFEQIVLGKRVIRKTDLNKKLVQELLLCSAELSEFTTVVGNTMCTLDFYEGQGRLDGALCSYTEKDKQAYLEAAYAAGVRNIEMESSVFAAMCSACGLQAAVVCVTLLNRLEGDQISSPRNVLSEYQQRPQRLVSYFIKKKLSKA

## O=c1[nH]cc(F)c(=O)[nH]1 [5-FU, Fluorouracil]
[1]; [6]
  PPE symptoms, % of patients: 30%

## Oc1ncnc2[nH]ncc12 [allopurinol, 1,5-dihydro-4H-pyrazolo[3,4-d]pyrimidin-4-one]
[2]; 10 patients on 5FU+LV (Mayo or AIO) or capecitabine, 3% cream of example 1, 5 times per day to palms and soles
  symptoms of PPE following the topical treatment: the symptoms of PPE disappeared
[2]; 10 patients on 5FU+LV or capecitabine, 3% cream, 5 times per day to palms and soles
  completion of chemotherapy: completed without any dose reduction or delay in the treatment due to PPE
[2]; topical application to cancer patients being treated with chemotherapy (summary statement)
  appearance of PPE: completely avoided the appearance of PPE
[3]; [7]
  NR: no response, %: 50%
  PR: Partial remission, %: 50%
  TR: total response, %: 50%
[3]; [8]
  patients that had developed PPE in whom chemotherapy was completed as planned: 86%
  toxic effects associated to the topical treatment: No toxics effects
[3]; [9]
  CR: complete remission, %: 80%
  NR: no response, %: 0%
  PR: Partial remission, %: 20%
  TR: total response, %: 100%
[3]; [10]
  CR: complete remission, %: 62.5%^
  NR: no response, %: 12.5%
  PR: Partial remission, %: 25%
  TR: total response, %: 87%
[3]; PPE patients treated with the 3% cream
  quality of life: significantly improved
[3]; [11]
  CR: complete remission, %: 66%
  NR: no response, %: 13.3%^
  PR: Partial remission, %: 20%
[3]; all 15 PPE patients, 3% cream 4-5 times a day to hands and feet
  TR: total response, %: 86%
[3]; all 15 PPE patients, 3% cream 4-5 times a day to hands and feet, listed as allopiirinol
  TR: total response, %: 86.6%^
[3]; [12]
  CR: complete remission, %: 66.6%^
  PR: Partial remission, %: 20.0%^
[4]
  solubility in chloroform and in ether: practically insoluble
  solubility in dilute solutions of alkali hydroxides: dissolves
  solubility in water and alcohol: very slightly soluble
[5]
  inhibition of thymidine phosphorylase (TP): inhibits TP
Uridine phosphorylase
  inhibition of uridine phosphorylase: not uridine phosphorylase

## CCCCCOC(=O)Nc1nc(=O)n([C@@H]2O[C@H](C)[C@@H](O)[C@H]2O)cc1F [Capecitabine]
[1]; patients who developed PPE
  Cumulative dosis with capecitabine until apprearauce of PPE, Median: 81.000 mg
[1]; [6]
  PPE symptoms, % of patients: 66%
  PPE symptoms, n (of patients treated): 8(12)
[1]; standard chemotherapy, before allopurinol treatment, listed as capecitabine
  PPE symptoms, % of patients: 66%
Cancer patients
  incidence of hand-foot syndrome (PPE), all grades: 49-60%
  incidence of hand-foot syndrome (PPE), severe grades: 17%

Reference: patent US8557829B2, “Use of allopurinol for the treatment of palmar plantar erythrodysesthesia” (Nobera Pharma, S.L., priority 2006, dated 2013)
